Measured values reported in patent publication US10238688B2, “Combination therapies for bladder cancer” (GENEDIA BIOTECH CO. LTD., priority 2015, dated 2019).

Experiments:
5637 = experiment: MTT cell survival / IC50, 5637 cells; assay type: cell-based, human; details: 5637; for Single drug 4X Cell Survival (%): ng/ml: EH 1000, Ci 6000, Mi 800, Pi 160, Pa 640, Ge 20, EH/Ci/Mi regimen; for Cell survival (%): Table S3, ng/ml: Pi 40, Pa 160, EH 250, Ci 1500, Mi 200, 1=Ci/Mi, 2=EH/Ci/Mi, 3=Pa/Ci/Mi, 4=Pi/Ci/Mi
Method: (§1) The clinical grade of the chemotherapeutics (NCI Dictionary of Cancer Terms) was provided by the First Affiliated Hospital of Harbin Medical University: Pirarubicin (Pi, Wanle, Shenzhen), Paclitaxel (Pa, Taiji, Sichuan), Adriamycin (Ad, Pfizer, Jiangsu), Epirubicin Hydrochloride (EH, Haizheng, Zhejiang), Hydroxycamptothecin (Hy, Lishizhen, Hubei), Cisplatin (Ci, Haosen, Jiangsu), Gemcitabine (Ge, Haosen, Jiangsu) and Mitomycin (Mi, Haizheng, Zhejiang). The drug induced cell death was determined by a thiazolyl […] (MTT, 490 nm reading) based cell proliferation assay in the cultured cells following treatment by various concentrations of drugs for 72 hours. The relative chemoresistance to each drug of all cell lines was calculated with the lowest IC50 as a reference. The overall chemoresistance of each cell line was described as “chemoresistance index”, the numerator of the total relative IC50 to all the drugs over the number of drugs to rank the overall resistance state of each cell line to the six chemotherapeutics collectively.
(§2) The relative IC50 (fold) of each drug of all nine cell lines was normalized to the lowest IC50 in the most sensitive cell line (FIG. 2G), to describe the single drug resistance of cell lines. The overall chemoresistance of each cell line, a “chemoresistance index” (the numerator of the total relative IC50 over the number of drugs) (FIG. 2G) were calculated to rank the overall resistance state of each cell line to this six chemotherapeutics.
(§3) Twenty six-drug combinations at the indicated doses were initially generated through a random number generator (using MATLAB MathWorks©, Natick, Mass., U.S.) (The upper half of Table 1). The cell survival (% over the not drug control) of treated cells was determined and then used for a calculation of the average cumulative cell survival (%, ACS: the sum of cell survival (%) per combination divided by the number of cell lines tested). ACS<30% was used to separate the effective from the not-effective combinations.

H-bc = experiment: MTT cell survival / IC50, H-bc cells; assay type: cell-based, human; details: H-bc; for Single drug 4X Cell Survival (%): ng/ml: EH 1000, Ci 6000, Mi 800, Pi 160, Pa 640, Ge 20, EH/Ci/Mi regimen; for Cell survival (%): Table S3, ng/ml: Pi 40, Pa 160, EH 250, Ci 1500, Mi 200, 1=Ci/Mi, 2=EH/Ci/Mi, 3=Pa/Ci/Mi, 4=Pi/Ci/Mi
Method: as §1, §2, §3

T24 = experiment: MTT cell survival / IC50, T24 cells; assay type: cell-based, human; details: for Single drug 4X Cell Survival (%): ng/ml: EH 1000, Ci 6000, Mi 800, Pi 160, Pa 640, Ge 20, EH/Ci/Mi regimen; for Cell survival (%): Table S3, ng/ml: Pi 40, Pa 160, EH 250, Ci 1500, Mi 200, 1=Ci/Mi, 2=EH/Ci/Mi, 3=Pa/Ci/Mi, 4=Pi/Ci/Mi
Method: as §1, §2, §3

EJ = experiment: MTT cell survival / IC50, EJ cells; assay type: cell-based, human; details: for Single drug 4X Cell Survival (%): ng/ml: EH 1000, Ci 6000, Mi 800, Pi 160, Pa 640, Ge 20, EH/Ci/Mi regimen; for Cell survival (%): Table S3, ng/ml: Pi 40, Pa 160, EH 250, Ci 1500, Mi 200, 1=Ci/Mi, 2=EH/Ci/Mi, 3=Pa/Ci/Mi, 4=Pi/Ci/Mi
Method: as §1, §2, §3

Biu87 = experiment: MTT cell survival / IC50, Biu87 cells; assay type: cell-based, human; details: Biu87; for Single drug 4X Cell Survival (%): ng/ml: EH 1000, Ci 6000, Mi 800, Pi 160, Pa 640, Ge 20, EH/Ci/Mi regimen; for Cell survival (%): Table S3, ng/ml: Pi 40, Pa 160, EH 250, Ci 1500, Mi 200, 1=Ci/Mi, 2=EH/Ci/Mi, 3=Pa/Ci/Mi, 4=Pi/Ci/Mi
Method: as §1, §2, §3

UM-UC-3 = experiment: MTT cell survival / IC50, UM-UC-3 cells; assay type: cell-based, human; details: UM-UC-3; for Single drug 4X Cell Survival (%): ng/ml: EH 1000, Ci 6000, Mi 800, Pi 160, Pa 640, Ge 20, EH/Ci/Mi regimen; for Cell survival (%): Table S3, ng/ml: Pi 40, Pa 160, EH 250, Ci 1500, Mi 200, 1=Ci/Mi, 2=EH/Ci/Mi, 3=Pa/Ci/Mi, 4=Pi/Ci/Mi
Method: as §1, §2, §3

SCaBER = experiment: MTT cell survival / IC50, SCaBER squamous carcinoma cells; assay type: cell-based, human; details: for Single drug 4X Cell Survival (%): ng/ml: EH 1000, Ci 6000, Mi 800, Pi 160, Pa 640, Ge 20, EH/Ci/Mi regimen; for Cell survival (%): Table S3, ng/ml: Pi 40, Pa 160, EH 250, Ci 1500, Mi 200, 1=Ci/Mi, 2=EH/Ci/Mi, 3=Pa/Ci/Mi, 4=Pi/Ci/Mi
Method: as §1, §2

SV-HUC-1 = assay type: cell-based; details: SV-HUC-1; ng/ml: EH 1000, Ci 6000, Mi 800, Pi 160, Pa 640, Ge 20; EH/Ci/Mi regimen
Method: as §1, §2

[1] = system: bladder cancer cell lines; experiment: Average cumulative cell survival (ACS) over the panel of cell lines tested; assay type: cell-based, human; details: for ACS (%) for cancer cells: seven cancer cell lines, ng/ml: EH 1000, Ci 6000, Mi 800, Pi 160, Pa 640, Ge 20, EH/Ci/Mi regimen; for ACS (%): eight cell lines, Table S3, ng/ml: Pi 40, Pa 160, EH 250, Ci 1500, Mi 200, 1=Ci/Mi, 2=EH/Ci/Mi, 3=Pa/Ci/Mi, 4=Pi/Ci/Mi
Method: as §1
The “Differential Evolution” algorithm guided experimental optimization (DE) consisted of three iterative operations: generating drug combinations of experimental testing, acquiring the efficacy of the generated drug combinations with biological assays and recalculating further improved drug combinations using a feedback search algorithm. This example first tested twenty drug combinations at randomized doses. These drug combinations were generated from a random integer matrix generator, coded in MATLAB™ language. These twenty drug combinations were then experimentally tested for cancer cell cytotoxicity. The experimental data were then subjected to calculation with a DE algorithm for new drug combinations based on three major mathematical calculations: “Mutation”, “Crossover” and “Selection”. The equations for each step can be found in the main test. The equations for each step are coded in MATLAB™ language.
as §3, with “combinations. Nine of the twenty combinations tested in the 1st round of iteration fell into this category (the lower half of Table 1).” for “combinations.”

J-82 = experiment: MTT cell survival / IC50, J-82 cells; assay type: cell-based, human; details: J82; Table S3; ng/ml: Pi 40, Pa 160, EH 250, Ci 1500, Mi 200; 1=Ci/Mi, 2=EH/Ci/Mi, 3=Pa/Ci/Mi, 4=Pi/Ci/Mi
Method: as §1, §2, §3

`Nc1ccn([C@@H]2O[C@H](CO)[C@@H](O)C2(F)F)c(=O)n1` [Ge, Gemcitabine] was tested, and the “Single drug 4X Cell Survival (%)” value 5637 was 30.06%, the “Single drug 4X Cell Survival (%)” value (H-bc) was 83.17% and the “Single drug 4X Cell Survival (%)” value (T24) was 41.49%. The “Single drug 4X Cell Survival (%)” value (EJ) was 31.95%, the “Single drug 4X Cell Survival (%)” value (Biu87) was 30.82% and the “Single drug 4X Cell Survival (%)” value (UM-UC-3) was 46.97%. For the same molecule, the “Single drug 4X Cell Survival (%)” value (SCaBER) was 30.87%, the “Single drug 4X Cell Survival (%)” value (SV-HUC-1) was 87.83% and the “ACS (%) for cancer cells” value [1] was 42.19%.
`CC(=O)O[C@H]1C(=O)[C@@]2(C)[C@H]([C@H](OC(=O)c3ccccc3)[C@]3(O)C[C@H](OC(=O)[C@H](O)[C@@H](NC(=O)c4ccccc4)c4ccccc4)C(C)=C1C3(C)C)[C@]1(OC(C)=O)CO[C@@H]1C[C@@H]2O` [Pa, Paclitaxel] was tested, and the “Cell survival (%)” value 5637 was 6.45%, the “Single drug 4X Cell Survival (%)” value 5637 was 2.09% and the “Cell survival (%)” value (H-bc) was 13.96%. For the same molecule, the “Single drug 4X Cell Survival (%)” value (H-bc) was 12.89%, the “Cell survival (%)” value (J-82) was 38.51% and the “Cell survival (%)” value (T24) was 11.55%. For the same molecule, the “Single drug 4X Cell Survival (%)” value (T24) was 17.31%, the “Cell survival (%)” value (EJ) was 33.05% and the “Single drug 4X Cell Survival (%)” value (EJ) was 26.38%. For the same molecule, the “Cell survival (%)” value (Biu87) was 23.08%, the “Single drug 4X Cell Survival (%)” value (Biu87) was 17.58% and the “Cell survival (%)” value (UM-UC-3) was 40.09%. For the same molecule, the “Single drug 4X Cell Survival (%)” value (UM-UC-3) was 27.74%, the “Cell survival (%)” value (SCaBER) was 57.91% and the “Single drug 4X Cell Survival (%)” value (SCaBER) was 42.21%. The “Single drug 4X Cell Survival (%)” value (SV-HUC-1) was 80.17%, the “ACS (%)” value [1] was 28.08% and the “ACS (%) for cancer cells” value [1] was 20.89%.
With `COc1cccc2c1C(=O)c1c(O)c3c(c(O)c1C2=O)C[C@@](O)(C(=O)CO)CC3O[C@H]1C[C@H](N)[C@H](O[C@@H]2CCCCO2)[C@H](C)O1` (stereo partly drawn) [Pi, (3S)-3-glycoloyl-3,5,12-trihydroxy-10-methoxy-6,11-dioxo-1,2,3,4,6,11-hexahydrotetracen-1-yl 3-amino-2,3,6-trideoxy-4-O-[(2R)-tetrahydro-2H-pyran-2-yl]-α-L-lyxo-hexopyranoside] the “Cell survival (%)” value 5637 was 29.22%, the “Single drug 4X Cell Survival (%)” value 5637 was 3.48% and the “Cell survival (%)” value (H-bc) was 86.89%. For the same molecule, the “Single drug 4X Cell Survival (%)” value (H-bc) was 16.04%, the “Cell survival (%)” value (J-82) was 55.37% and the “Cell survival (%)” value (T24) was 48.33%. The “Single drug 4X Cell Survival (%)” value (T24) was 39.8%, the “Cell survival (%)” value (EJ) was 30.38% and the “Single drug 4X Cell Survival (%)” value (EJ) was 21.25%. For the same molecule, the “Cell survival (%)” value (Biu87) was 41.67%, the “Single drug 4X Cell Survival (%)” value (Biu87) was 26.98% and the “Cell survival (%)” value (UM-UC-3) was 65.59%. The “Single drug 4X Cell Survival (%)” value (UM-UC-3) was 31.44%, the “Cell survival (%)” value (SCaBER) was 30.04% and the “Single drug 4X Cell Survival (%)” value (SCaBER) was 10.24%. The “Single drug 4X Cell Survival (%)” value (SV-HUC-1) was 91.79%, the “ACS (%)” value [1] was 48.44% and the “ACS (%) for cancer cells” value [1] was 21.32%.
